Experimental data reported in patent US11530181B2, “IL-6 inhibitors and methods of treatment” (University of Florida Research Foundation, Incorporated, priority 2018, dated 2022).

Legend:
[1] = tested on: IL-11 induced STAT3 phosphorylation; test: Western blot, IL-11 induced STAT3 phosphorylation in MCF7; assay type: cell-based, human; settings: MCF7, 15 μM, 2, 3 and 4 hours
Procedure: (§1) Cells were harvested and lysed in cold radioimmunoprecipitation assay (RIPA) lysis buffer containing proteasome inhibitor cocktail and phosphatase inhibitor cocktail. The protein concentrations were determined using the BCA Protein Assay kit. After adding the loading buffer and boiling at 95° C. for 10 minutes, equivalent amounts of proteins were loaded on and separated by SDS-PAGE, and then were transferred to PVDF membranes. Membranes were probed with primary antibodies (1:1000) against phospho-STAT3 (Tyr705), STAT3, phospho-STAT1 (Tyr701), STAT1, phospho-STAT6 (Tyr 641), STAT6, and GAPDH, respectively, and horseradish peroxidase (HRP)-conjugated secondary antibody (1:10000) (Cell Signaling Technology, Beverly, Mass.). Membranes were analyzed using Enhanced Chemiluminescence Plus reagents and either scanned with the Storm Scanner (Amersham Pharmacia Biotech, Inc., Piscataway, N.J.) or imaged with ChemiDoc MP imaging system (Bio-Rad, Hercules, Calif.). […] The cells were harvested after 30 minutes and analyzed by Western blot.
MCF7 breast cancer cells were seeded in 10 cm plates (1 million cells per plate) and allowed to adhere overnight. […] The cells were harvested after 30 minutes and analyzed by western blotting.

[2] = tested on: MCF7 breast cancer cell line; test: MTT cell viability assay, MCF7; assay type: cell-based, human; settings: Homo sapiens; MCF7 (low IL-6), 48 h, 0% FBS medium
Procedure: Human breast cancer cell lines MCF7, MDA-MB-231 and SUM159 were maintained in Dulbecco's modified Eagle medium (DMEM). Human pancreatic cancer cell line BxPC-3 was maintained in RPMI 1640 medium. Human pancreatic cancer cell line Capan-1 was maintained in Iscove's Modified Dulbecco's Medium (IMEM). All media were supplemented with 10% FBS and 1% penicillin/streptomycin, and cells were incubated in a humidified 37° C. incubator with 5% CO2. PE/CA-PJ49 cell line was purchased from external sources and maintained according to manufacturer's protocol.
Cell viability was evaluated by using the MTT assay in triple replicates in one experiment and repeated for three times. Cancer cells were seeded in 96-well plates at a density of 3,000 cells per well. The cells were incubated at 37° C. for a period of 24 hours. […] After incubation for 48 or 72 hours, a stock solution of MTT (0.5 mg/ml) was then added to each well containing the treated cells, followed by incubation at 37° C. for 3 h. After removal of medium, the MTT dye was dissolved with spectrophotometric grade DMSO and the absorbance was read at 570 nm. The IC50 value is determined by interpolation based on the absorbance value halfway between positive and negative controls. […]

STAT2 phosphorylation = test: Western blot, STAT2 phosphorylation in MCF7; assay type: cell-based, human; settings: MCF7, pre-treatment 2, 3 and 4 hours
Procedure: FIG. 13. depicts the reduced effect on STAT1, STAT2, STAT4 and STAT6 phosphorylation by LLM418. The MCF7 cells were serum-starved overnight, then treated with LLM4 (15 μM) for 2, 3 and 4 hours. STAT1, STAT2, STAT4 and STAT6 phosphorylation were induced by INF-γ, INF-α and IL-4, respectively. The cells were harvested at 30 minutes and analyzed by western blot assays.
as §1

gp130 = target: T1, gp130 (Homo sapiens, UniProt P40189); test: Drug Affinity Responsive Target Stability (DARTS) assay in SUM159 lysates; assay type: binding
T1 construct: endogenous in cells; host or cells: SUM159 human breast cancer cells (lysate)
Procedure: Human SUM159 breast cancer cells were lysed in cold radioimmunoprecipitation assay (RIPA) lysis buffer containing proteasome inhibitor cocktail and phosphatase inhibitor cocktail. Then lysates were incubated with escalating concentrations (10-1000 μM) of LLM418 or DMSO control at room temperature for 1 h. Proteolysis was followed by adding protease pronase solution at a ratio of 1 mg of pronase to 1000 mg (or 2000 mg) of lysate protein for 30 min, 20 min or 15 min at room temperature. To stop proteolysis, 4×SDS sample loading buffer was added at 1:3 ratio to each sample and boiled at 95° C. for 10 min. The resulted protein samples were separated by 8% SDS-PAGE gel and analyzed by western blotting. The DARTS assay is a method for studying the specific protein-ligand binding interactions. It is based on the principle that the target protein structure might be stabilized and become less susceptible to proteolysis by proteases upon drug binding [Lomenick B, Jung G, Wohlschlegel J, et al. Target identification using drug affinity responsive target stability (DARTS). Curr Protoc Chem Biol 2011, 3, 163-180; Lomenick B, Olsen R, Huang J. Identification of direct protein targets of small molecules. ACS Chem Biol. 2011, 6, 34-46]. It can be used to find the targeting protein of a small molecule by running SDS-gel without purifying any specific protein. […]

T1 sequence (P40189 23-918): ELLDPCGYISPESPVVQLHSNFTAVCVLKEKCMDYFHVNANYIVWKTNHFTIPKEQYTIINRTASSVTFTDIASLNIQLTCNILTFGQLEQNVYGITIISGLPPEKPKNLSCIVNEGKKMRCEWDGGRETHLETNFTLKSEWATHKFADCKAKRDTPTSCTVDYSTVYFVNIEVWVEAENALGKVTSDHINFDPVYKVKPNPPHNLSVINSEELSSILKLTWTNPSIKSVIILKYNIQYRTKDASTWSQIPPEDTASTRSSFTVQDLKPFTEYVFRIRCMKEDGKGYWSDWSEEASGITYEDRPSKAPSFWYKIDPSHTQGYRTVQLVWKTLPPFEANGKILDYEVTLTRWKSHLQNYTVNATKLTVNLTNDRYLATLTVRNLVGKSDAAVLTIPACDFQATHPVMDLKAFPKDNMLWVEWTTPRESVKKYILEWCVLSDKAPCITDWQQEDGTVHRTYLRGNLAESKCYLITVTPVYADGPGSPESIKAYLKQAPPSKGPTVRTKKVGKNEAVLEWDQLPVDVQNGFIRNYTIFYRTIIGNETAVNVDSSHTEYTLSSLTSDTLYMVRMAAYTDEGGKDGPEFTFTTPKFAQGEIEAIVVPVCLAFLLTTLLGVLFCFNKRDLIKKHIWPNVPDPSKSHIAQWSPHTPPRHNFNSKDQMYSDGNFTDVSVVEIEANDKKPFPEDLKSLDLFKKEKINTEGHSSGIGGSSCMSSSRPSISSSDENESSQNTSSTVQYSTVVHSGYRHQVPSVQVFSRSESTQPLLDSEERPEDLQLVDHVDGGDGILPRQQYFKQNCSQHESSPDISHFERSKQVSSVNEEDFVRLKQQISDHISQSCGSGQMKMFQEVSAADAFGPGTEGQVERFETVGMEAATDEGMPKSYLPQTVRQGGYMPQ

IC50 [2]	abundance of gp130 compared with the no drug control (gp130; 100 and 1000 μM)	abundance of the gp130 band (protection from proteolysis) (gp130; SUM159 lysates, 10-1000 μM, pronase:protein=1:2000, 15 min)	Structure (SMILES)	inhibition of IL-11 induced STAT3 phosphorylation [1]	effect on STAT2 phosphorylation (STAT2 phosphorylation)
4.51 µM			O=C(Nc1cc(F)ccc1-n1cccc1)c1ccc(OCCCN2CCCCC2)cc1 [LLM4, N-(5-fluoro-2-(1H-pyrrol-1-yl)phenyl)-4-(3-(piperidin-1-yl)propoxy)benzamide]	also inhibited IL-11 induced STAT3 phosphorylation	
	increased significantly	increased with an increasing dose	O=C(Nc1ccccc1-c1ccn[nH]1)c1ccc(OCCN2CCCCC2)cc1 [LLM418, N-(2-(1H-pyrazol-5-yl)phenyl)-4-(2-(piperidin-1-yl)ethoxy)benzamide]		little effect
